What follows are compounds tested against T1, 5HTR2B (Homo sapiens, UniProt P41595) (assay: 5HTR2B antagonist activity, calcium mobilization assay in human Maverick/293 cells (serotonin as agonist)). Conditions: intracellular calcium, emission 525 nm, read-out: Ca assay IC50.
T1 construct: host or cells: human Maverick/293 cells
Format: cell-based
How it was run: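 Serum-starved (2 h) human Maverick/293 cells loaded with calcium dye for 50 min at 37 °C, then antagonist preincubated 15-30 min before serotonin challenge. Calcium fluorescence (ex 485/em 525 nm) recorded for 80 s; peak-based % inhibition fitted sigmoidally for IC50.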

T1 sequence (P41595 whole entry): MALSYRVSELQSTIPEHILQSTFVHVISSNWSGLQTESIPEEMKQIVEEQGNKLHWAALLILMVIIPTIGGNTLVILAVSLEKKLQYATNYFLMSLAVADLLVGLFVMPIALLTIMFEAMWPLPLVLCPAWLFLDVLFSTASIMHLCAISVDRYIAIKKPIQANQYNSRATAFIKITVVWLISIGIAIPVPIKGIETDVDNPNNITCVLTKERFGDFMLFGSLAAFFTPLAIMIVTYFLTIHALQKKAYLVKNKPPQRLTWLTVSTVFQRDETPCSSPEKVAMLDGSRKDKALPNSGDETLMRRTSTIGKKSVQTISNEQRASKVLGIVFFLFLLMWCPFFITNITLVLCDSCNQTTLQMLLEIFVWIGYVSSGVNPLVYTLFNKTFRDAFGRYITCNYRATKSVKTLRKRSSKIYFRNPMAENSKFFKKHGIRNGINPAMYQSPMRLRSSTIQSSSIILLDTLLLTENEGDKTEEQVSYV

First: COc1ccc(S(=O)(=O)N[C@H]2CCOC2)cc1C(=O)Nc1ccc(C#N)cc1 [Compound 104, (S)—N-(4-Cyanophenyl)-2-methoxy-5-(N-(tetrahydrofuran-3-yl)sulfamoyl) benzamide]
Second: COc1ccc(S(=O)(=O)N[C@H]2CCOC2)cc1C(=O)Nc1ccc(Cl)cc1 [Compound 108, (S)—N-(4-Chlorophenyl)-2-methoxy-5-(N-(tetrahydrofuran-3-yl)sulfamoyl) benzamide]
The IC50 of the first is 37-fold higher: 201 nM for the first, 5.5 nM for the second. The second is the more potent here.

`COc1ccc(S(=O)(=O)N[C@H]2CCOC2)cc1C(=O)Nc1c(F)cccc1F` [Compound 105, (S)—N-(2,6-Difluorophenyl)-2-methoxy-5-(N-(tetrahydrofuran-3-yl)sulfamoyl) benzamide] and `COc1ccc(S(=O)(=O)N[C@H]2CCOC2)cc1C(=O)Nc1cccc(F)c1F` [Compound 113, (S)—N-(2,3-Difluorophenyl)-2-methoxy-5-(N-(tetrahydrofuran-3-yl)sulfamoyl) benzamide] are within 1.5-fold of each other in IC50: 12 nM for the first, 17 nM for the second.

Compared with `COc1ccc(S(=O)(=O)N[C@H]2CCOC2)cc1C(=O)Nc1ccc(OC(F)F)cc1` [Compound 106, (S)—N-(4-(Difluoromethoxy)phenyl)-2-methoxy-5-(N-(tetrahydrofuran-3-yl)sulfamoyl)benzamide], `COc1ccc(S(=O)(=O)N[C@H]2CCOC2)cc1C(=O)Nc1cccc(OC(F)F)c1` [Compound 107, (S)—N-(3-(Difluoromethoxy)phenyl)-2-methoxy-5-(N-(tetrahydrofuran-3-yl)sulfamoyl)benzamide] is 22-fold lower in IC50: 596 nM for the first, 27 nM for the second.

Going from `COc1ccc(S(=O)(=O)N[C@H]2CCOC2)cc1C(=O)Nc1cccc(C(F)(F)F)c1` [Compound 109, (S)-2-Methoxy-5-(N-(tetrahydrofuran-3-yl)sulfamoyl)-N-(3-(trifluoromethyl)phenyl)benzamide] to `COc1ccc(S(=O)(=O)N[C@H]2CCOC2)cc1C(=O)Nc1cccc(Br)c1` [Compound 124, (S)—N-(3-Bromophenyl)-2-methoxy-5-(N-(tetrahydrofuran-3-yl)sulfamoyl) benzamide], the IC50 falls from 231 nM to 6.3 nM (37-fold).

First: COc1ccc(S(=O)(=O)N[C@H]2CCOC2)cc1C(=O)Nc1cccc2c1cnn2C [Compound 110, (S)-2-Methoxy-N-(1-methyl-1H-indazol-4-yl)-5-(N-(tetrahydrofuran-3-yl)sulfamoyl)benzamide]
Second: COc1ccc(S(=O)(=O)N[C@H]2CCOC2)cc1C(=O)Nc1cccc(F)c1OC [Compound 134, (S)—N-(3-fluoro-2-methoxyphenyl)-2-methoxy-5-(N-(tetrahydrofuran-3-yl)sulfamoyl)benzamide]
The IC50 of the first is 20-fold higher: 10 nM for the first, 0.5 nM for the second.

Compared with `COc1ccc(S(=O)(=O)N[C@H]2CCOC2)cc1C(=O)Nc1ccc(F)c(F)c1` [Compound 111, (S)—N-(3,4-Difluorophenyl)-2-methoxy-5-(N-(tetrahydrofuran-3-yl)sulfamoyl) benzamide], `COc1ccc(S(=O)(=O)N[C@H]2CCOC2)cc1C(=O)Nc1ccc(F)c(Cl)c1` [Compound 112, (S)—N-(3-Chloro-4-fluorophenyl)-2-methoxy-5-(N-(tetrahydrofuran-3-yl)sulfamoyl)benzamide] is 2.2-fold higher in IC50: 1.3 nM for the first, 2.9 nM for the second.

Compared with `COc1ccc(S(=O)(=O)N[C@H]2CCOC2)cc1C(=O)Nc1ccc(Cl)cc1F` [Compound 114, (S)—N-(4-Chloro-2-fluorophenyl)-2-methoxy-5-(N-(tetrahydrofuran-3-yl)sulfamoyl)benzamide], `COc1ccc(S(=O)(=O)N[C@H]2CCOC2)cc1C(=O)Nc1ccc(Cl)c(F)c1` [Compound 115, (S)—N-(4-Chloro-3-fluorophenyl)-2-methoxy-5-(N-(tetrahydrofuran-3-yl)sulfamoyl)benzamide] is 2-fold higher in IC50: 0.4 nM for the first, 0.8 nM for the second.

First: COc1ccc(S(=O)(=O)N[C@H]2CCOC2)cc1C(=O)Nc1ccc(F)cn1 [Compound 116, (S)—N-(5-Fluoropyridin-2-yl)-2-methoxy-5-(N-(tetrahydrofuran-3-yl)sulfamoyl) benzamide]
Second: COc1ccc(S(=O)(=O)N[C@H]2CCOC2)cc1C(=O)Nc1ncc(F)cn1 [Compound 117, (S)—N-(5-Fluoropyrimidin-2-yl)-2-methoxy-5-(N-(tetrahydrofuran-3-yl)sulfamoyl)benzamide]
The IC50 of the first is 12-fold lower: 5.4 nM for the first, 64 nM for the second. The first is the more potent here.

Going from `COc1ccc(S(=O)(=O)N[C@H]2CCOC2)cc1C(=O)Nc1ncc(F)cc1F` [Compound 118, (S)—N-(3,5-Difluoropyridin-2-yl)-2-methoxy-5-(N-(tetrahydrofuran-3-yl)sulfamoyl)benzamide] to `COc1ccc(S(=O)(=O)N[C@H]2CCOC2)cc1C(=O)Nc1ncc(F)cc1Cl` [Compound 119], the IC50 falls from 6.7 nM to 1.4 nM (4.8-fold). The second is the more potent here.

First: COc1ccc(S(=O)(=O)N[C@H]2CCOC2)cc1C(=O)Nc1ncc(Cl)cc1F [Compound 120, (S)—N-(5-Chloro-3-fluoropyridin-2-yl)-2-methoxy-5-(N-(tetrahydrofuran-3-yl)sulfamoyl)benzamide]
Second: COc1ccc(S(=O)(=O)N[C@H]2CCOC2)cc1C(=O)Nc1ncc(F)cc1C [Compound 132, (S)—N-(5-fluoro-3-methylpyridin-2-yl)-2-methoxy-5-(N-(tetrahydrofuran-3-yl)sulfamoyl)benzamide]
The IC50 of the first is 3.3-fold lower: 50 nM for the first, 163 nM for the second. The first is the more potent here.

Going from `COc1ccc(S(=O)(=O)N[C@H]2CCOC2)cc1C(=O)Nc1ncccc1Cl` [Compound 121, (S)—N-(3-Chloropyridin-2-yl)-2-methoxy-5-(N-(tetrahydrofuran-3-yl)sulfamoyl) benzamide] to `COc1ccc(S(=O)(=O)N[C@H]2CCOC2)cc1C(=O)Nc1ncccc1C` [Compound 133, (S)-2-Methoxy-N-(3-methylpyridin-2-yl)-5-(N-(tetrahydrofuran-3-yl)sulfamoyl) benzamide], the IC50 rises from 3.8 nM to 405 nM (110-fold).

First: COc1ccc(S(=O)(=O)N[C@H]2CCOC2)cc1C(=O)Nc1ccc(F)cc1 [Compound 122, (S)—N-(4-Fluorophenyl)-2-methoxy-5-(N-(tetrahydrofuran-3-yl)sulfamoyl) benzamide]
Second: COc1ccc(S(=O)(=O)N[C@H]2CCOC2)cc1C(=O)Nc1ccc(Br)cc1 [Compound 125, (S)—N-(4-Bromophenyl)-2-methoxy-5-(N-(tetrahydrofuran-3-yl)sulfamoyl) benzamide]
The IC50 of the first is 47-fold lower: 0.6 nM for the first, 28 nM for the second.

Compared with `COc1ccc(S(=O)(=O)N[C@H]2CCOC2)cc1C(=O)Nc1ccccc1Br` [Compound 123, (S)—N-(2-Bromophenyl)-2-methoxy-5-(N-(tetrahydrofuran-3-yl)sulfamoyl) benzamide], `COc1ccc(S(=O)(=O)N[C@H]2CCOC2)cc1C(=O)Nc1ccccc1Cl` [Compound 127, (S)—N-(2-Chlorophenyl)-2-methoxy-5-(N-(tetrahydrofuran-3-yl)sulfamoyl) benzamide] is 2-fold lower in IC50: 0.2 nM for the first, 0.1 nM for the second.

`COc1ccc(S(=O)(=O)N[C@H]2CCOC2)cc1C(=O)Nc1cccc(Cl)c1` [Compound 126, (S)—N-(3-Chlorophenyl)-2-methoxy-5-(N-(tetrahydrofuran-3-yl)sulfamoyl) benzamide] and `COc1ccc(S(=O)(=O)N[C@H]2CCOC2)cc1C(=O)Nc1ccc(C)cc1` [Compound 129, (S)-2-Methoxy-5-(N-(tetrahydrofuran-3-yl)sulfamoyl)-N-(p-tolyl)benzamide] are the same in IC50: 12 nM for the first, 12 nM for the second.

First: COc1ccc(S(=O)(=O)N[C@H]2CCOC2)cc1C(=O)Nc1ccccc1OC(F)F [Compound 128, (S)—N-(2-(Difluoromethoxy)phenyl)-2-methoxy-5-(N-(tetrahydrofuran-3-yl)sulfamoyl)benzamide]
Second: CCOc1ccccc1NC(=O)c1cc(S(=O)(=O)N[C@H]2CCOC2)ccc1OC [Compound 136, (S)—N-(2-ethoxyphenyl)-2-methoxy-5-(N-(tetrahydrofuran-3-yl)sulfamoyl) benzamide]
The IC50 of the first is 3-fold higher: 1.2 nM for the first, 0.4 nM for the second.

Going from `COc1ccc(S(=O)(=O)N[C@H]2CCOC2)cc1C(=O)Nc1c(F)cccc1OC` [Compound 130, (S)—N-(2-Fluoro-6-methoxyphenyl)-2-methoxy-5-(N-(tetrahydrofuran-3-yl)sulfamoyl)benzamide] to `COc1cc(F)ccc1NC(=O)c1cc(S(=O)(=O)N[C@H]2CCOC2)ccc1OC` [Compound 135, (S)—N-(4-fluoro-2-methoxyphenyl)-2-methoxy-5-(N-(tetrahydrofuran-3-yl)sulfamoyl)benzamide], the IC50 falls from 2.1 nM to 0.1 nM (21-fold).

Compared with `COc1ccc(S(=O)(=O)N[C@H]2CCOC2)cc1C(=O)Nc1ccc(F)cc1C` [Compound 131, (S)—N-(4-Fluoro-2-methylphenyl)-2-methoxy-5-(N-(tetrahydrofuran-3-yl)sulfamoyl)benzamide], `COc1ccc(S(=O)(=O)N[C@H]2C[C@H](O)C2)cc1C(=O)Nc1cc(C)ccc1Cl` [Compound 137a, N-(2-chloro-5-methylphenyl)-5-(N-((trans)-3-hydroxycyclobutyl)sulfamoyl)-2-methoxybenzamide] is 13-fold higher in IC50: 1.3 nM for the first, 17.1 nM for the second.

Compared with `COc1ccc(S(=O)(=O)N[C@H]2C[C@@H](O)C2)cc1C(=O)Nc1cc(C)ccc1Cl` [Compound 137b, N-(2-Chloro-5-methylphenyl)-5-(N-((cis)-3-hydroxycyclobutyl)sulfamoyl)-2-methoxybenzamide], `COc1ccc(S(=O)(=O)N[C@H]2C[C@H](O)C2)cc1C(=O)Nc1cccc(C)c1Cl` [Compound 140a, N-(2-Chloro-3-methylphenyl)-5-(N-((trans)-3-hydroxycyclobutyl)sulfamoyl)-2-methoxybenzamide] is 10-fold lower in IC50: 39 nM for the first, 3.9 nM for the second. The second is the more potent here.

First: COc1ccc(S(=O)(=O)N[C@H]2C[C@H](O)C2)cc1C(=O)Nc1c(C)cccc1Cl [Compound 138a, N-(2-Chloro-6-methylphenyl)-5-(N-((trans)-3-hydroxycyclobutyl)sulfamoyl)-2-methoxybenzamide]
Second: COc1ccc(S(=O)(=O)N[C@H]2C[C@@H](O)C2)cc1C(=O)Nc1c(C)cccc1Cl [Compound 138b, N-(2-Chloro-6-methylphenyl)-5-(N-((cis)-3-hydroxycyclobutyl)sulfamoyl)-2-methoxybenzamide]
The IC50 of the first is 2.1-fold lower: 159 nM for the first, 329 nM for the second.

Work on `COc1ccc(S(=O)(=O)N[C@H]2C[C@@H](O)C2)cc1C(=O)Nc1cccc(C)c1Cl` [Compound 140b, N-(2-Chloro-3-methylphenyl)-5-(N-((cis)-3-hydroxycyclobutyl)sulfamoyl)-2-methoxybenzamide] yielded an IC50 of 0.9 nM.

Source: patent US10654837B2, “Sulphamoylaryl derivatives and use thereof as medicaments for the treatment of liver fibrosis” (Janssen Pharmaceutica NV, priority 2017, dated 2020)
